Patent US11964953B2, “Substituted aminothiazoles as DGKzeta inhibitors for immune activation” (Bayer Aktiengesellschaft, priority 2020, dated 2024)

target: human DGKζ (Homo sapiens (Human), UniProt Q13574); assay: Human DGKζ kinase activity inhibition assay (ADP-Glo); assay type: biochemical; details: in vitro human DGKζ kinase activity inhibition assay; read-out: IC50
Procedure, shortened: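 Enzyme was C-terminally FLAG-tagged full-length recombinant human DGKζ from baculovirus-infected insect cells. Substrate preparation used octyl-β-D-glucopyranoside in 50 mM MOPS pH 7.4 with sonication; ADP generated was quantified by ADP-Glo luminescence as activity measure.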

Chain of human DGKζ (Q13574 other isoform, or with tags, fused parts or gaps): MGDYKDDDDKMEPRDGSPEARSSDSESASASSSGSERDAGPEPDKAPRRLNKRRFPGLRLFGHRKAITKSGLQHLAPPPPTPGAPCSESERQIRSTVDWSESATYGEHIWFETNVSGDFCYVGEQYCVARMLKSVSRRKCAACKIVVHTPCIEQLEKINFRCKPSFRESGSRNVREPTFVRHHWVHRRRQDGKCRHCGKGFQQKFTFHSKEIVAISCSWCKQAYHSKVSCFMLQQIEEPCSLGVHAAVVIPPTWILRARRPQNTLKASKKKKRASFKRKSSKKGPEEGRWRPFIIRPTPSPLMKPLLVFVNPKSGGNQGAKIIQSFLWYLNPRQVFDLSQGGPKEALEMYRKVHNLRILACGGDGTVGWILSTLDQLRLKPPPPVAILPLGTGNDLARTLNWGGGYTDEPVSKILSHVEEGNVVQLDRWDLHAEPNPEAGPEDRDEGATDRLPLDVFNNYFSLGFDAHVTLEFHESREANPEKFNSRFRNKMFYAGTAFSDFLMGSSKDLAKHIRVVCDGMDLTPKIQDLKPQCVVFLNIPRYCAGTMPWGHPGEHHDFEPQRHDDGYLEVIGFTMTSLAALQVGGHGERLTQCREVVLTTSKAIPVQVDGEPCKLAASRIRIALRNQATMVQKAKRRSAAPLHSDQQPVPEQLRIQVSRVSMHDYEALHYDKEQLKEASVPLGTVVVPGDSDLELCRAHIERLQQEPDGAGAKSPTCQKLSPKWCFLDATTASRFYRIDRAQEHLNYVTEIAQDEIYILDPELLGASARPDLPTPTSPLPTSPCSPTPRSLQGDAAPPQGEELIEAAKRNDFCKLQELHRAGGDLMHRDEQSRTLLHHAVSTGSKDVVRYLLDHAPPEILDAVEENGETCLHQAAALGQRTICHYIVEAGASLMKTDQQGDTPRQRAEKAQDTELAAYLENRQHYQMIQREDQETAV

SMILES	IC50 [µM]
CC(C(N)=O)N(c1ccc(F)cc1)c1nc(N)c(C(=O)c2ccc(OCC(=O)NCC(F)(F)F)cc2)s1 (racemic) [Example 99, rac-2-(N-[4-amino-5-[4-[2-oxo-2-(2,2,2-trifluoroethylamino)ethoxy]benzoyl]thiazol-2-yl]-4-fluoro-anilino)propanamide]	0.0758
CC(C(N)=O)N(c1ccc(F)cc1)c1nc(N)c(C(=O)c2ccc(OCC(=O)N(C)C3CCN(C)CC3)cc2)s1 (racemic) [Example 101, rac-2-(N-[4-amino-5-[4-[2-[methyl-(1-methyl-4-piperidyl)amino]-2-oxo-ethoxy]benzoyl]thiazol-2-yl]-4-fluoro-anilino)propanamide]	0.329
CONC(=O)COc1ccc(C(=O)c2sc(N(c3ccc(F)cc3)C(C)C(N)=O)nc2N)cc1 (racemic) [Example 102, rac-2-(N-[4-amino-5-[4-[2-(methoxyamino)-2-oxo-ethoxy]benzoyl]thiazol-2-yl]-4-fluoro-anilino)propanamide]	0.506
CCNC(=O)COc1ccc(C(=O)c2sc(N(c3ccc(F)cc3)C(C)C(N)=O)nc2N)cc1 (racemic) [Example 104, rac-2-(N-[4-amino-5-[4-[2-(ethylamino)-2-oxo-ethoxy]benzoyl]thiazol-2-yl]-4-fluoro-anilino)propanamide]	0.234
CC(C(N)=O)N(c1ccc(F)cc1)c1nc(N)c(C(=O)c2ccc(OCC(=O)Nc3cccc(C(N)=O)c3)cc2)s1 (racemic) [Example 107, rac-3-[[2-[4-[4-amino-2-(N-[2-amino-1-methyl-2-oxo-ethyl]-4-fluoro-anilino)thiazole-5-carbonyl]phenoxy]acetyl]amino]benzamide]	0.0773
CCN(C)C(=O)COc1ccc(C(=O)c2sc(N(c3ccc(F)cc3)C(C)C(N)=O)nc2N)cc1 (racemic) [Example 111, rac-2-(N-[4-amino-5-[4-[2-[ethyl(methyl)amino]-2-oxo-ethoxy]benzoyl]thiazol-2-yl]-4-fluoro-anilino)propanamide]	0.334
Cc1cc(NC(=O)COc2ccc(C(=O)c3sc(N(c4ccc(F)cc4)C(C)C(N)=O)nc3N)cc2)on1 (racemic) [Example 112, rac-2-(N-(4-amino-5-[4-[2-[(3-methylisoxazol-5-yl)amino]-2-oxo-ethoxy]benzoyl]thiazol-2-yl]-4-fluoro-anilino)propanamide]	0.3
CC(C(N)=O)N(c1ccc(F)cc1)c1nc(N)c(C(=O)c2ccc(OCC(=O)N(C)CCCN(C)C)cc2)s1 (racemic) [Example 113, rac-2-(N-(4-amino-5-[4-[2-[3-(dimethylamino)propyl-methyl-amino]-2-oxo-ethoxy]benzoyl]thiazol-2-yl]-4-fluoro-anilino)propanamide]	0.703
CC(=O)N1CCN(C(=O)COc2ccc(C(=O)c3sc(N(c4ccc(F)cc4)C(C)C(N)=O)nc3N)cc2)CC1 (racemic) [Example 114, rac-2-(N-[5-[4-[2-(4-acetylpiperazin-1-yl)-2-oxo-ethoxy]benzoyl]-4-amino-thiazol-2-yl]-4-fluoro-anilino)propanamide]	0.658
CC(C(N)=O)N(c1ccc(F)cc1)c1nc(N)c(C(=O)c2ccc(OCC(=O)NCC(O)CO)cc2)s1 (racemic) [Example 116, 2-(N-[4-amino-5-(4-[2-(2,3-dihydroxypropylamino)-2-oxo-ethoxy]benzoyl]thiazol-2-yl]-4-fluoro-anilino)propanamide]	0.581
COc1ccc(NC(=O)COc2ccc(C(=O)c3sc(N(c4ccc(F)cc4)C(C)C(N)=O)nc3N)cc2)cc1 (racemic) [Example 117, rac-2-(N-[4-amino-5-[4-[2-(4-methoxyanilino)-2-oxo-ethoxy]benzoyl]thiazol-2-yl]-4-fluoro-anilino)propanamide]	0.0149
CC(C(N)=O)N(c1ccc(F)cc1)c1nc(N)c(C(=O)c2ccc(OCC(=O)Nc3ccc(Cl)cc3)cc2)s1 (racemic) [Example 119, rac-2-(N-[4-amino-5-[4-[2-(4-chloroanilino)-2-oxo-ethoxy]benzoyl]thiazol-2-yl]-4-fluoro-anilino)propanamide]	0.00454
CC(C(N)=O)N(c1ccc(F)cc1)c1nc(N)c(C(=O)c2ccc(OCC(=O)N3CCCCCC3)cc2)s1 (racemic) [Example 123, rac-2-(N-[4-amino-5-[4-[2-(azepan-1-yl)-2-oxo-ethoxy]benzoyl]thiazol-2-yl]-4-fluoro-anilino)propanamide]	0.1
CC(C(N)=O)N(c1ccc(F)cc1)c1nc(N)c(C(=O)c2ccc(OCC(=O)N(C)CCc3ccccc3)cc2)s1 (racemic) [Example 127, rac-2-(N-[4-amino-5-[4-[2-[methyl(2-phenylethyl)amino]-2-oxo-ethoxy]benzoyl]thiazol-2-yl]-4-fluoro-anilino)propanamide]	0.0731
CC1CCCN(C(=O)COc2ccc(C(=O)c3sc(N(c4ccc(F)cc4)C(C)C(N)=O)nc3N)cc2)C1 (racemic) [Example 128, 2-(N-[4-amino-5-[4-[2-(3-methyl-1-piperidyl)-2-oxo-ethoxy]benzoyl]thiazol-2-yl]-4-fluoro-anilino)propanamide]	0.0722
CC1CCN(C(=O)COc2ccc(C(=O)c3sc(N(c4ccc(F)cc4)C(C)C(N)=O)nc3N)cc2)CC1 (racemic) [Example 129, rac-2-(N-[4-amino-5-(4-[2-(4-methyl-1-piperidyl)-2-oxo-ethoxy]benzoyl]thiazol-2-yl]-4-fluoro-anilino)propanamide]	0.0971
CC(C(N)=O)N(c1ccc(F)cc1)c1nc(N)c(C(=O)c2ccc(OCC(=O)Nc3ncnc4[nH]ncc34)cc2)s1 (racemic) [Example 131, rac-2-(N-[4-amino-5-[4-[2-oxo-2-(1H-pyrazolo[3,4-d]pyrimidin-4-ylamino)ethoxy]benzoyl]thiazol-2-yl]-4-fluoro-anilino)propanamide]	0.18
CC(C(N)=O)N(c1ccc(F)cc1)c1nc(N)c(C(=O)c2ccc(OCC(=O)NC3CCCC3)cc2)s1 (racemic) [Example 132, rac-2-(N-[4-amino-5-[4-[2-(cyclopentylamino)-2-oxo-ethoxy]benzoyl]thiazol-2-yl]-4-fluoro-anilino)propanamide]	0.0933
CC(C(N)=O)N(c1ccc(F)cc1)c1nc(N)c(C(=O)c2ccc(OCC(=O)N3CCc4ccccc4C3)cc2)s1 (racemic) [Example 133, rac-2-(N-[4-amino-5-[4-[2-(3,4-dihydro-1H-isoquinolin-2-yl)-2-oxo-ethoxy]benzoyl]thiazol-2-yl]-4-fluoro-anilino)propanamide]	0.0425
CC(C(N)=O)N(c1ccc(F)cc1)c1nc(N)c(C(=O)c2ccc(OCC(=O)N3Cc4ccccc4C3)cc2)s1 (racemic) [Example 134, rac-2-(N-[4-amino-5-[4-(2-isoindolin-2-yl-2-oxo-ethoxy)benzoyl]thiazol-2-yl]-4-fluoro-anilino)propanamide]	0.0768

Results, then the compound that gave them:

IC50 [µM]	SMILES
0.0419	Cc1cc(NC(=O)COc2ccc(C(=O)c3sc(N(c4ccc(F)cc4)C(C)C(N)=O)nc3N)cc2)no1 (racemic) [Example 103, rac-2-(N-[4-amino-5-[4-[2-[(5-methylisoxazol-3-yl)amino]-2-oxo-ethoxy]benzoyl]thiazol-2-yl]-4-fluoro-anilino)propanamide]
0.0333	CC(C(N)=O)N(c1ccc(F)cc1)c1nc(N)c(C(=O)c2ccc(OCC(=O)NC3CCCCC3)cc2)s1 (racemic) [Example 106, rac-2-(N-(4-amino-5-[4-[2-(cyclohexylamino)-2-oxo-ethoxy]benzoyl]thiazol-2-yl]-4-fluoro-anilino)propanamide]
0.0194	CC(C(N)=O)N(c1ccc(F)cc1)c1nc(N)c(C(=O)c2ccc(OCC(=O)Nc3ccc4ncccc4c3)cc2)s1 (racemic) [Example 108, rac-2-(N-(4-amino-5-[4-[2-oxo-2-(6-quinolylamino)ethoxy]benzoyl]thiazol-2-yl]-4-fluoro-anilino)propanamide]
0.0517	CC(C(N)=O)N(c1ccc(F)cc1)c1nc(N)c(C(=O)c2ccc(OCC(=O)Nc3ccc(C(N)=O)cc3)cc2)s1 (racemic) [Example 109, rac-4-[[2-[4-[4-amino-2-(N-[2-amino-1-methyl-2-oxo-ethyl]-4-fluoro-anilino)thiazole-5-carbonyl]phenoxy]acetyl]amino]benzamide]
0.0167	CC(C(N)=O)N(c1ccc(F)cc1)c1nc(N)c(C(=O)c2ccc(OCC(=O)NCc3ccccc3Cl)cc2)s1 (racemic) [Example 120, rac-2-(N-[4-amino-5-[4-[2-[(2-chlorophenyl)methylamino]-2-oxo-ethoxy]benzoyl]thiazol-2-yl]-4-fluoro-anilino)propanamide]
0.00907	CC(C(N)=O)N(c1ccc(F)cc1)c1nc(N)c(C(=O)c2ccc(OCC(=O)Nc3ccc(F)cc3)cc2)s1 (racemic) [Example 122, rac-2-(N-[4-amino-5-[4-[2-(4-fluoroanilino)-2-oxo-ethoxy]benzoyl]thiazol-2-yl]-4-fluoro-anilino)propanamide]
0.0483	COc1ccc(CNC(=O)COc2ccc(C(=O)c3sc(N(c4ccc(F)cc4)C(C)C(N)=O)nc3N)cc2)cc1 (racemic) [Example 124, rac-2-(N-[4-amino-5-[4-[2-[(4-methoxyphenyl)methylamino]-2-oxo-ethoxy]benzoyl]thiazol-2-yl]-4-fluoro-anilino)propanamide]
0.044	CC(NC(=O)COc1ccc(C(=O)c2sc(N(c3ccc(F)cc3)C(C)C(N)=O)nc2N)cc1)c1ccccc1 (racemic) [Example 125, 2-(N-[4-amino-5-[4-[2-oxo-2-(1-phenylethylamino)ethoxy]benzoyl]thiazol-2-yl]-4-fluoro-anilino)propanamide]
0.0288	Cc1ccc(CNC(=O)COc2ccc(C(=O)c3sc(N(c4ccc(F)cc4)C(C)C(N)=O)nc3N)cc2)cc1 (racemic) [Example 126, rac-2-(N-[4-amino-5-[4-[2-oxo-2-(p-tolylmethylamino)ethoxy]benzoyl]thiazol-2-yl]-4-fluoro-anilino)propanamide]
